The results in this text go back to patent US8394952B2 (Vertex Pharmaceuticals Incorporated, priority 2006, dated 2013).

By Ki is commonly meant the equilibrium dissociation constant of an inhibitor or competing ligand from its target. Low values mean a stronger hold on the target, high ones a looser hold on the target.

Where “and” joins values, the source holds several entries; their conditions need not be identical. Identical values can stand only once.

This assay has as its target Plk1 (Homo sapiens, UniProt P53350). The assay can be described thus: biochemical.

Plk1, sequence (P53350 20-338): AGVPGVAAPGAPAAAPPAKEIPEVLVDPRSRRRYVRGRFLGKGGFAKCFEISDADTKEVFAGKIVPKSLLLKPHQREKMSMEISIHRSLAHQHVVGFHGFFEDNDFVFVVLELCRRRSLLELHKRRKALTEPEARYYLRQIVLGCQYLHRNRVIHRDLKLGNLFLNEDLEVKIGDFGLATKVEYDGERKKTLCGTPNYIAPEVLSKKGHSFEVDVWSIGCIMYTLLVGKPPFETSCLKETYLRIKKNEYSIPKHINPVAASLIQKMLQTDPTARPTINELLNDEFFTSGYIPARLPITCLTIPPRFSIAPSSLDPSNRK

Regarding `COc1cc(C(=O)NC2CC2)ccc1Nc1ncc2c(n1)N(C1CCCC1)C[C@@H](C)C(=O)N2C` [Compound I-184, (R)-4-(9-cyclopentyl-5,7-dimethyl-6-oxo-6,7,8,9-tetrahydro-5H-pyrimido[4,5-b][1,4]diazepin-2-ylamino)-N-cyclopropyl-3-methoxybenzamide], the inhibition constant Ki was less than 10 nM.

In turn, `COc1cc(C(=O)NC2CCCC2)ccc1Nc1ncc2c(n1)N(C1CCCC1)C[C@@H](C)C(=O)N2C` [Compound I-185, (R)—N-cyclopentyl-4-(9-cyclopentyl-5,7-dimethyl-6-oxo-6,7,8,9-tetrahydro-5H-pyrimido[4,5-b][1,4]diazepin-2-ylamino)-3-methoxybenzamide] yielded a Ki of less than 10 nM.

Molecule `COc1cc(C(=O)NC2CCC2)ccc1Nc1ncc2c(n1)N(C1CCCC1)C[C@@H](C)C(=O)N2C` [Compound I-186, (R)—N-cyclobutyl-4-(9-cyclopentyl-5,7-dimethyl-6-oxo-6,7,8,9-tetrahydro-5H-pyrimido[4,5-b][1,4]diazepin-2-ylamino)-3-methoxybenzamide] had a Ki of less than 10 nM.

On to `COc1cc(C(=O)N[C@@H]2CCOC2)ccc1Nc1ncc2c(n1)N(C1CCCC1)CC(C)(C)C(=O)N2C` [Compound I-187, (R)-4-(9-cyclopentyl-5,7,7-trimethyl-6-oxo-6,7,8,9-tetrahydro-5H-pyrimido[4,5-b][1,4]diazepin-2-ylamino)-3-methoxy-N-(tetrahydrofuran-3-yl)benzamide], for which the Ki is less than 10 nM.

On to `COc1ccccc1Nc1ncc2c(n1)N(C1CCCC1)CCC(=O)N2C` [Compound I-188, 9-cyclopentyl-2-(2-methoxyphenylamino)-5-methyl-8,9-dihydro-5H-pyrimido[4,5-b][1,4]diazepin-6(7H)-one], for which the Ki fell in the range of 10 to 100 nM.

`CCC1CN(C2CCCC2)c2nc(Nc3ccc(C(=O)NC)cc3OC)ncc2N(C)C1=O` (stereo not shown) [Compound I-190, 4-(9-cyclopentyl-7-ethyl-5-methyl-6-oxo-6,7,8,9-tetrahydro-5H-pyrimido[4,5-b][1,4]diazepin-2-ylamino)-3-methoxy-N-methylbenzamide] came in with a Ki of less than 10 nM.

As to `CNC(=O)c1ccc(Nc2ncc3c(n2)N(C2CC4CCC2C4)CC(C)(C)C(=O)N3C)c(OC)c1` (stereo not shown) [Compound I-191, 4-(9-(bicyclo[2.2.1]heptan-2-yl)-5,7,7-trimethyl-6-oxo-6,7,8,9-tetrahydro-5H-pyrimido[4,5-b][1,4]diazepin-2-ylamino)-3-methoxy-N-methylbenzamide], the Ki was less than 10 nM.

`CNC(=O)c1ccc(Nc2ncc3c(n2)N(CC2CNCCO2)CC(C)(C)C(=O)N3C)c(OC)c1` (stereo not shown) [Compound I-192, 3-methoxy-N-methyl-4-(5,7,7-trimethyl-9-(morpholin-2-ylmethyl)-6-oxo-6,7,8,9-tetrahydro-5H-pyrimido[4,5-b][1,4]diazepin-2-ylamino)benzamide]: the inhibition constant (Ki) is < 10 nM and 10 to 100 nM.

The molecule `COc1cc(C(=O)NCc2ccco2)ccc1Nc1ncc2c(n1)N(C1CCCC1)CC(C)(C)C(=O)N2C` [Compound I-193, 4-(9-cyclopentyl-5,7,7-trimethyl-6-oxo-6,7,8,9-tetrahydro-5H-pyrimido[4,5-b][1,4]diazepin-2-ylamino)-N-(furan-2-ylmethyl)-3-methoxybenzamide] showed a Ki of less than 10 nM.

As for `COc1cc(C(=O)NCC2CCCO2)ccc1Nc1ncc2c(n1)N(C1CCCC1)CC(C)(C)C(=O)N2C` (stereo not shown) [Compound I-194, 4-(9-cyclopentyl-5,7,7-trimethyl-6-oxo-6,7,8,9-tetrahydro-5H-pyrimido[4,5-b][1,4]diazepin-2-ylamino)-3-methoxy-N-((tetrahydrofuran-2-yl)methyl)benzamide], the Ki is less than 10 nM.

As to `COc1cc(C(=O)NCC2CCOCC2)ccc1Nc1ncc2c(n1)N(C1CCCC1)CC(C)(C)C(=O)N2C` [Compound I-195, 4-(9-cyclopentyl-5,7,7-trimethyl-6-oxo-6,7,8,9-tetrahydro-5H-pyrimido[4,5-b][1,4]diazepin-2-ylamino)-3-methoxy-N-((tetrahydrofuran-2H-pyran-4-yl)methyl)benzamide], the Ki is less than 10 nM.

`COc1cc(C(=O)NCC2CCCCC2)ccc1Nc1ncc2c(n1)N(C1CCCC1)CC(C)(C)C(=O)N2C` [Compound I-196, N-(cyclohexylmethyl)-4-(9-cyclopentyl-5,7,7-trimethyl-6-oxo-6,7,8,9-tetrahydro-5H-pyrimido[4,5-b][1,4]diazepin-2-ylamino)-3-methoxybenzamide] showed a Ki of less than 10 nM.

Consider `COCCNC(=O)c1ccc(Nc2ncc3c(n2)N(C2CCCC2)CC(C)(C)C(=O)N3C)c(OC)c1` [Compound I-197, 4-(9-cyclopentyl-5,7,7-trimethyl-6-oxo-6,7,8,9-tetrahydro-5H-pyrimido[4,5-b][1,4]diazepin-2-ylamino)-3-methoxy-N-(2-methoxyethyl)benzamide], for which the Ki was less than 10 nM.

In the case of `COCCCNC(=O)c1ccc(Nc2ncc3c(n2)N(C2CCCC2)CC(C)(C)C(=O)N3C)c(OC)c1` [Compound I-198, 4-(9-cyclopentyl-5,7,7-trimethyl-6-oxo-6,7,8,9-tetrahydro-5H-pyrimido[4,5-b][1,4]diazepin-2-ylamino)-3-methoxy-N-(3-methoxypropyl)benzamide], the Ki was less than 10 nM.

`COc1cc(C(=O)N2CCOCC2)ccc1Nc1ncc2c(n1)N(C1CCCC1)CC(C)(C)C(=O)N2C` [Compound I-199, 9-cyclopentyl-2-(2-methoxy-4-(morpholine-4-carbonyl)phenylamino)-5,7,7-trimethyl-8,9-dihydro-5H-pyrimido[4,5-b][1,4]diazepin-6(7H)-one] showed a Ki of less than 10 nM.

The molecule `COc1cc(C(=O)Nc2ccccc2)ccc1Nc1ncc2c(n1)N(C1CCCC1)CC(C)(C)C(=O)N2C` [Compound I-200, 4-(9-cyclopentyl-5,7,7-trimethyl-6-oxo-6,7,8,9-tetrahydro-5H-pyrimido[4,5-b][1,4]diazepin-2-ylamino)-3-methoxy-N-phenylbenzamide] gave a Ki of less than 10 nM.

The molecule `COc1cc(C(=O)NCc2ccccc2)ccc1Nc1ncc2c(n1)N(C1CCCC1)CC(C)(C)C(=O)N2C` [Compound I-201] returned a Ki of less than 10 nM.

On to `COc1cc(C(=O)NCc2cccnc2)ccc1Nc1ncc2c(n1)N(C1CCCC1)CC(C)(C)C(=O)N2C` [Compound I-202, 4-(9-cyclopentyl-5,7,7-trimethyl-6-oxo-6,7,8,9-tetrahydro-5H-pyrimido[4,5-b][1,4]diazepin-2-ylamino)-3-methoxy-N-(pyridin-3-ylmethyl)benzamide], for which the inhibition constant Ki is less than 10 nM.

`COc1cc(C(=O)NCCc2ccccc2)ccc1Nc1ncc2c(n1)N(C1CCCC1)CC(C)(C)C(=O)N2C` [Compound I-203, 4-(9-cyclopentyl-5,7,7-trimethyl-6-oxo-6,7,8,9-tetrahydro-5H-pyrimido[4,5-b][1,4]diazepin-2-ylamino)-3-methoxy-N-phenethylbenzamide] displayed a Ki of less than 10 nM.

Consider `COc1cc(C(=O)N[C@H]2CC[C@H](O)CC2)ccc1Nc1ncc2c(n1)N(C1CCCC1)CC(C)(C)C(=O)N2C` [Compound I-204, 4-(9-cyclopentyl-5,7,7-trimethyl-6-oxo-6,7,8,9-tetrahydro-5H-pyrimido[4,5-b][1,4]diazepin-2-ylamino)-N-((1R,4R)-4-hydroxycyclohexyl)-3-methoxybenzamide], for which the Ki is less than 10 nM.

For `COc1cc(C(=O)NCC2(O)CCCCC2)ccc1Nc1ncc2c(n1)N(C1CCCC1)CC(C)(C)C(=O)N2C` [Compound I-205, 4-(9-cyclopentyl-5,7,7-trimethyl-6-oxo-6,7,8,9-tetrahydro-5H-pyrimido[4,5-b][1,4]diazepin-2-ylamino)-N-((1-hydroxycyclohexyl)methyl)-3-methoxy-benzamide], the Ki is less than 10 nM.

As to `COc1cc(C(=O)NN2CCCC2)ccc1Nc1ncc2c(n1)N(C1CCCC1)CC(C)(C)C(=O)N2C` [Compound I-206, 4-(9-cyclopentyl-5,7,7-trimethyl-6-oxo-6,7,8,9-tetrahydro-5H-pyrimido[4,5-b][1,4]diazepin-2-ylamino)-3-methoxy-N-(pyrrolidin-1-yl)benzamide], the Ki was less than 10 nM.

`COc1cc(C(=O)Nc2cccnc2)ccc1Nc1ncc2c(n1)N(C1CCCC1)CC(C)(C)C(=O)N2C` [Compound I-207, 4-(9-cyclopentyl-5,7,7-trimethyl-6-oxo-6,7,8,9-tetrahydro-5H-pyrimido[4,5-b][1,4]diazepin-2-ylamino)-3-methoxy-N-(pyridin-3-yl)benzamide] displayed an inhibition constant Ki of less than 10 nM.

As for `COc1cc(C(=O)N2CC(F)(C3CC3)C2)ccc1Nc1ncc2c(n1)N(C1CCCC1)CC(C)(C)C(=O)N2C` [Compound I-208, 9-cyclopentyl-2-(4-(3-cyclopropyl-3-fluoroazetidine-1-carbonyl)-2-methoxyphenylamino)-5,7,7-trimethyl-8,9-dihydro-5H-pyrimido[4,5-b][1,4]diazepin-6(7)-one], the inhibition constant (Ki) was less than 10 nM.

In turn, `COc1cc(C(=O)N[C@@H]2CCc3ccccc32)ccc1Nc1ncc2c(n1)N(C1CCCC1)CC(C)(C)C(=O)N2C` [Compound I-209, (R)-4-(9-cyclopentyl-5,7,7-trimethyl-6-oxo-6,7,8,9-tetrahydro-5H-pyrimido[4,5-b][1,4]diazepin-2-ylamino)-N-(2,3-dihydro-1H-inden-1yl)-3-methoxy-benzamide] had a Ki of less than 10 nM.

`COc1cc(C(=O)NC2CC3CCC2C3)ccc1Nc1ncc2c(n1)N(C1CCCC1)CC(C)(C)C(=O)N2C` (stereo not shown) [Compound I-210, N-(bicyclo[2.2.1]heptan-2-yl)-4-(9-cyclopentyl-5,7,7-trimethyl-6-oxo-6,7,8,9-tetrahydro-5H-pyrimido[4,5-b][1,4]diazepin-2-ylamino)-3-methoxybenzamide] displayed an inhibition constant (Ki) of less than 10 nM.

In turn, `COc1cc(C(=O)NCC(C)(C)CO)ccc1Nc1ncc2c(n1)N(C1CCCC1)CC(C)(C)C(=O)N2C` [Compound I-211, 4-(9-cyclopentyl-5,7,7-trimethyl-6-oxo-6,7,8,9-tetrahydro-5H-pyrimido[4,5-b][1,4]diazepin-2-ylamino)-N-(3-hydroxy-2,2-dimethylpropyl)-3-methoxybenzamide] gave an inhibition constant (Ki) of less than 10 nM.

On to `COc1cc(C(=O)NCc2ccncc2)ccc1Nc1ncc2c(n1)N(C1CCCC1)CC(C)(C)C(=O)N2C` [Compound I-212, 4-(9-cyclopentyl-5,7,7-trimethyl-6-oxo-6,7,8,9-tetrahydro-5H-pyrimido[4,5-b][1,4]diazepin-2-ylamino)-3-methoxy-N-(pyridin-4-ylmethyl)benzamide], for which the inhibition constant (Ki) is less than 10 nM.
